# Tests used:
# [1] = test system: NCI-H522; details: NCI-H522 (Non-Small Cell Lung Cancer)
# [2] = test system: HT29; details: HT29 (Colon Cancer)
# [3] = test system: SN12C; details: SN12C (Renal Cancer)
# [4] = test system: UO-31; details: UO-31 (Renal Cancer)
# [5] = test system: KM12; details: KM12 (Colon Cancer)
# [6] = test system: NCI/ADR-RES; details: NCI/ADR-RES (Breast Cancer)
# [7] = test system: MALME-3M; details: MALME-3M (Melanoma)
# [8] = test system: HS 578T; details: HS 578T (Breast Cancer)
# [9] = test system: A498; details: A498 (Renal Cancer)
# [10] = test system: MDA-MB-435; details: MDA-MB-435 (Breast Cancer)
# [11] = test system: NCI-H226; details: NCI-H226 (Non-Small Cell Lung Cancer)
# [12] = test system: OVCAR-8; details: OVCAR-8 (Ovarian Cancer)
# [13] = test system: HOP-92; details: HOP-92 (Non-Small Cell Lung Cancer)
# [14] = test system: SF-268; details: SF-268 (CNS Cancer)
# [15] = test system: M14; details: M14 (Melanoma)
# [16] = test system: PC-3; experiment: in vitro antiproliferation assay, Prostate Cancer; details: PC-3 (Prostate Cancer)
# [17] = test system: CAKI-1; details: CAKI-1 (Renal Cancer)
# [18] = test system: OVCAR-4; details: OVCAR-4 (Ovarian Cancer)
# [19] = test system: LOX I MVI; details: LOX I MVI (Melanoma)
# [20] = test system: COLO 205; details: COLO 205 (Colon Cancer)
# [21] = test system: SF-295; details: SF-295 (CNS Cancer)
# [22] = test system: SF-539; details: SF-539 (CNS Cancer)
# [23] = test system: ACHN; details: ACHN (Renal Cancer)
# [24] = test system: SK-OV-3; details: SK-OV-3 (Ovarian Cancer)
# [25] = test system: RPM1-8226; details: RPM1-8226 (Leukemia)
# [26] = test system: U251; details: U251 (CNS Cancer)
# [27] = test system: IGROV1; details: IGROV1 (Ovarian Cancer)
# [28] = test system: 786-0; details: 786-0 (Renal Cancer)
# [29] = test system: HL-60(TB); details: HL-60(TB) (Leukemia)
# [30] = test system: TK-10; details: TK-10 (Renal Cancer)
# [31] = test system: NCI-H460; details: NCI-H460 (Non-Small Cell Lung Cancer)
smiles,measurement,setting,value
"COc1cc(Nc2ncc(F)c(Nc3ccc4c(n3)NC(=O)C(C)(C)O4)n2)cc(OC)c1OC.O=S(=O)(O)c1ccccc1 [Compound 1 (besylate salt), N4-(2,2-Dimethyl-3-oxo-4H-5-pyrid[1,4]oxazin-6-yl)-5-fluoro-N2-(3,4,5-trimethoxyphenyl)-2,4-pyrimidinediamine Benzenesulfonic Acid Salt]",TGI,[1],>1.00E−4
same,CC50,[1]; read-out: LC50,> 100 µM
same,GI50,[2],2.19 µM
same,TGI,[2],>1.00E−4
same,CC50,[2]; read-out: LC50,> 100 µM
same,GI50,[3],0.698 µM
same,TGI,[3],>1.00E−4
same,CC50,[3]; read-out: LC50,> 100 µM
same,GI50,[4],0.596 µM
same,TGI,[4],>1.00E−4
same,CC50,[4]; read-out: LC50,> 100 µM
same,GI50,[5],0.355 µM
same,TGI,[5],>1.00E−4
same,CC50,[5]; read-out: LC50,> 100 µM
same,GI50,[6],> 100 µM
same,TGI,[6],>1.00E−4
same,CC50,[6]; read-out: LC50,> 100 µM
same,GI50,[7],> 100 µM
same,TGI,[7],>1.00E−4
same,CC50,[7]; read-out: LC50,> 100 µM
same,GI50,[8],1.19 µM
same,TGI,[8],>1.00E−4
same,CC50,[8]; read-out: LC50,> 100 µM
same,GI50,[9],0.36 µM
same,CC50,[9]; read-out: LC50,> 100 µM
same,GI50,[10],3.62 µM
same,TGI,[10],>1.00E−4
same,CC50,[10]; read-out: LC50,> 100 µM
same,GI50,[11],0.497 µM
same,CC50,[11]; read-out: LC50,> 100 µM
same,GI50,[12],> 100 µM
same,TGI,[12],>1.00E−4
same,CC50,[12]; read-out: LC50,> 100 µM
same,GI50,[13],0.41 µM
same,CC50,[13]; read-out: LC50,> 100 µM
same,GI50,[14],1.7 µM
same,TGI,[14],>1.00E−4
same,CC50,[14]; read-out: LC50,> 100 µM
same,GI50,[15],> 100 µM
same,TGI,[15],>1.00E−4
same,CC50,[15]; read-out: LC50,> 100 µM
same,GI50,[16],3.07 µM
same,TGI,[16],>1.00E−4
same,CC50,[16]; read-out: LC50,> 100 µM
same,GI50,[17],0.0515 µM
same,TGI,[17],2.44E−6
same,CC50,[17]; read-out: LC50,> 100 µM
same,GI50,[18],> 100 µM
same,TGI,[18],>1.00E−4
same,CC50,[18]; read-out: LC50,> 100 µM
same,GI50,[19],1.13 µM
same,TGI,[19],1.13E−6
same,CC50,[19]; read-out: LC50,> 100 µM
same,GI50,[20],7.26 µM
same,TGI,[20],>1.00E−4
same,CC50,[20]; read-out: LC50,> 100 µM
same,TGI,[21],>1.00E−4
same,CC50,[21]; read-out: LC50,> 100 µM
same,GI50,[22],0.605 µM
same,CC50,[22]; read-out: LC50,> 100 µM
same,GI50,[23],1.24 µM
same,TGI,[23],>1.00E−4
same,CC50,[23]; read-out: LC50,> 100 µM
same,GI50,[24],0.429 µM
same,TGI,[24],>1.00E−4
same,CC50,[24]; read-out: LC50,> 100 µM
same,GI50,[25],> 100 µM
same,TGI,[25],>1.00E−4
same,CC50,[25]; read-out: LC50,> 100 µM
same,TGI,[26],>1.00E−4
same,CC50,[26]; read-out: LC50,> 100 µM
same,GI50,[27],0.796 µM
same,TGI,[27],>1.00E−4
same,CC50,[27]; read-out: LC50,> 100 µM
same,GI50,[28],0.873 µM
same,TGI,[28],>1.00E−4
same,CC50,[28]; read-out: LC50,> 100 µM
same,GI50,[29],> 100 µM
same,TGI,[29],>1.00E−4
same,CC50,[29]; read-out: LC50,> 100 µM
same,TGI,[30],>1.00E−4
same,CC50,[30]; read-out: LC50,> 100 µM
same,TGI,[31],>1.00E−4
same,CC50,[31]; read-out: LC50,> 100 µM
